From patent publication US12528818B2, “Compositions and methods for inhibition of RAS” (Leidos Biomedical Research, Inc., priority 2021, dated 2026)

tested on: pERK in NCI-H358 cells; assay: Cell-based pERK HTRF assay (pERK inhibition in H358 cells); details: Homo sapiens, NCI-H358, 0.5 h, pERK inhibition IC50, NCI-H358 cells, 30 min incubation; read-out: PERK in H358 cell

Row | Compound | IC50 [µM]
1 | C=CC(=O)N1CCC(N(CC)c2nc(OC[C@@]34CCCN3C[C@H](F)C4)nc3c(C#N)c(-c4ccc(F)c5sc(N)c(C#N)c45)ccc23)[C@H]1COC (stereo partly drawn) [Compound 428] | 0.1 to 1
2 | C=CC(=O)N1C[C@H](C)N(c2nc(OCC34CCCN3CCC4)nc3c(F)c(-c4ccc(F)c5sc(N)c(C#N)c45)c(C(F)(F)F)cc23)C[C@H]1C [Compound 346] | < 0.1
3 | C=CC(=O)N1CCC(N(C)c2nc(OC[C@@]34CCCN3C[C@H](F)C4)nc3c(Cl)c(-c4ccc(F)c5sc(N)c(C#N)c45)c(C#N)cc23)[C@H]1C (stereo partly drawn) [Compound 425] | 0.1 to 1
4 | C=CC(=O)N1CCC(N(C)c2nc(OC[C@@H]3CC4(CC4)CN3C)nc3c(F)c(-c4ccc(F)c5sc(N)c(C#N)c45)ccc23)[C@H]1C (stereo partly drawn) [Compound 436] | < 0.1
5 | C=CC(=O)N1C[C@@H](F)[C@@H](N(C)c2nc(OC[C@@H]3CC4(CC4)CN3C)nc3cc(-c4ccc(F)c5sc(N)c(C#N)c45)c(C(F)(F)F)cc23)C1 [Compound 357] | < 0.1
6 | C=CC(=O)N1C[C@H](C)N(c2nc(OC[C@@]34CCCN3C[C@H](F)C4)nc3c(F)c(-c4ccc(F)c5sc(N)nc45)c(C#N)cc23)C[C@H]1C [Compound 326] | < 0.1
7 | C=CC(=O)N1CCC(N(C)c2nc(OC[C@@H]3C[C@@H](OC)CN3C)nc3c(F)c(-c4ccc(F)c5sc(N)c(C#N)c45)ccc23)[C@H]1COC (stereo partly drawn) [Compound 424] | < 0.1
8 | C=CC(=O)N1C[C@H](C)N(c2nc(N3CC(N4CC(O)C4)C3)nc3c(F)c(-c4ccc(F)c5sc(N)c(C#N)c45)c(C(F)(F)F)cc23)C[C@H]1C [Compound 328] | < 0.1
9 | C=CC(=O)N1CC[C@@H](N(CC)c2nc(OC[C@@]34CCCN3C[C@H](F)C4)nc3c(F)c(-c4ccc(F)c5sc(N)nc45)c(C(F)(F)F)cc23)C1 [Compound 257] | < 0.1
10 | N#CN1CC(Nc2nc(OCC34CCCN3CCC4)nc3c(F)c(-c4ccc(F)c5sc(N)nc45)c(Cl)cc23)C1 [Compound 58] | 0.1 to 1
11 | C=CC(=O)N1CC[C@@H](N(CC)c2nc(OC[C@@]34CCCN3C[C@H](F)C4)nc3c(F)c(-c4ccc(F)c5sc(N)c(C#N)c45)c(Cl)cc23)[C@H]1C [Compound 418] | 0.1 to 1
12 | C=CC(=O)N1CC(N(c2nc(OC[C@]34CCCN3C[C@H](F)C4)nc3c(F)c(-c4ccc(F)c5sc(N)nc45)c(C(F)(F)F)cc23)C2CC2)C1 [Compound 178, 1-(3-((7-(2-amino-7-fluorobenzo[d]thiazol-4-yl)-8-fluoro-2-(((2R,7aR)-2-fluorotetrahydro-1H-pyrrolizin-7a(5H)-yl)methoxy)-6-(trifluoromethyl)quinazolin-4-yl)(cyclopropyl)amino)azetidin-1-yl)prop-2-en-1-one] | 0.1 to 1
13 | C=CC(=O)N1C[C@@H](F)[C@@H](N(C)c2nc(OC[C@@]34CCCN3C[C@H](F)C4)nc3cc(-c4ccc(F)c5sc(N)nc45)c(C(F)(F)F)cc23)C1 [Compound 317] | < 0.1
14 | C=CC(=O)N1C[C@H](N(C)c2nc(OC[C@@]34CCCN3C[C@H](F)C4)nc3c(F)c(-c4ccc(F)c5sc(N)nc45)c(C(F)(F)F)cc23)C(C)(C)C1 [Compound 301] | < 0.1
15 | C=CC(=O)N1C2CC1CN(c1nc(OCC34CCCN3CCC4)nc3c(F)c(-c4ccc(F)c5sc(N)nc45)c(Cl)cc13)C2 [Compound 161] | > 1
16 | C=CC(=O)N1CC(N(CC)c2nc(OC[C@]34CCCN3C[C@H](F)C4)nc3c(F)c(-c4ccc(F)c5sc(N)nc45)c(C(F)(F)F)cc23)C1 [Compound 206] | 0.1 to 1
17 | C=CC(=O)N1CCN(c2nc(OC[C@@H]3CCCN3C)nc3c(F)c(-c4ccc(F)c5sc(N)nc45)c(OC(F)(F)F)cc23)CC1 [Compound 163] | 0.1 to 1
18 | C=CC(=O)N1C[C@H](C)N(c2nc(OC[C@@]34CCCN3C[C@H](F)C4)nc3cc(-c4ccc(F)c5sc(N)nc45)c(C(F)(F)F)cc23)C[C@H]1C [Compound 299] | < 0.1

Row | Compound | IC50 [µM]
19 | C=CC(=O)N1CCN(c2nc(OC[C@@H]3CC(F)(F)CN3C)nc3c(F)c(-c4ccc(F)c5sc(N)nc45)c(C(F)(F)F)cc23)CC1 [Compound 131] | < 0.1
20 | C=CC(=O)N1CCN(c2nc(OCC34CCCN3CCC4)nc3c(F)c(-c4ccc(F)c5sc(N)nc45)c(OC(F)F)cc23)CC1 [Compound 254] | 0.1 to 1
21 | C=CC(=O)N1CCC(N(C)c2nc(OC[C@@H]3C[C@@H](F)CN3C)nc3c(F)c(-c4ccc(F)c5sc(N)c(C#N)c45)ccc23)[C@H]1COC (stereo partly drawn) [Compound 423] | < 0.1
22 | C=CC(=O)N1CC[C@@H]2[C@H]1CN2c1nc(OC[C@@]23CCCN2C[C@H](F)C3)nc2c(F)c(-c3ccc(F)c4sc(N)c(C#N)c34)c(C(F)(F)F)cc12 [Compound 339] | < 0.1
23 | C=CC(=O)N1CCC(N(C)c2nc(OC[C@@H]3CCCN3C)nc3cc(-c4ccc(F)c5sc(N)c(C#N)c45)c(C#N)cc23)[C@H]1COC (stereo partly drawn) [Compound 455] | 0.1 to 1
24 | C=CC(=O)N1CC(Nc2nc(OC[C@@H]3CCCN3C)nc3c(F)c(-c4ccc(F)c5sc(N)nc45)c(-c4ccoc4)cc23)C1 [Compound 93] | > 1
25 | C=CC(=O)N1CCN(c2nc(OC[C@@H]3CCCN3C)nc3c(F)c(-c4ccc(F)c5sc(N)nc45)c(C(F)(F)F)cc23)CC1 [Compound 71, 1-(4-(7-(2-amino-7-fluorobenzo[d]thiazol-4-yl)-8-fluoro-2-(((S)-1-methylpyrrolidin-2-yl)methoxy)-6-(trifluoromethyl)quinazolin-4-yl)piperazin-1-yl)prop-2-en-1-one] | < 0.1
26 | C=CC(=O)N1CC(N(C)c2nc(OCC34CCCN3CCC4)nc3c(F)c(-c4ccc(F)c5sc(N)nc45)c(Cl)cc23)C1 [Compound 84, 1-(3-((7-(2-amino-7-fluorobenzo[d]thiazol-4-yl)-6-chloro-8-fluoro-2-((tetrahydro-1H-pyrrolizin-7a(5H)-yl)methoxy)quinazolin-4-yl)(methyl)amino)azetidin-1-yl)prop-2-en-1-one] | 0.1 to 1
27 | C=CC(=O)N1CC(N(c2nc(OC[C@]34CCCN3C[C@H](F)C4)nc3c(F)c(-c4ccc(F)c5sc(N)nc45)c(Cl)cc23)C2CC2)C1 [Compound 210] | > 1
28 | C=CC(=O)N1CC(Nc2nc(OCC34CCCN3CCC4)nc3c(F)c(-c4ccc(F)c5sc(N)nc45)c(-c4ccoc4)cc23)C1 [Compound 70, 1-(3-((7-(2-amino-7-fluorobenzo[d]thiazol-4-yl)-8-fluoro-6-(furan-3-yl)-2-((tetrahydro-1H-pyrrolizin-7a(5H)-yl)methoxy)quinazolin-4-yl)amino)azetidin-1-yl)prop-2-en-1-one] | > 1
29 | C=CC(=O)N1CC(Nc2nc(OCC34CCCN3CCC4)nc3c(F)c(-c4ccc(F)c5sc(N)nc45)c(Cl)cc23)[C@H]1C (stereo partly drawn) [Compound 213] | > 1
30 | C=CC(=O)NCCNc1nc(C2CCN(C)CC2)nc2c(F)c(-c3ccc(F)c4sc(N)nc34)c(Cl)cc12 [Compound 64] | > 1
31 | C=CC(=O)N1CCN(c2nc(OC[C@@]34CCCN3C[C@H](F)C4)nc3c(F)c(-c4ccc(F)c5sc(N)c(C#N)c45)c(C(F)(F)F)cc23)CC12CC2 [Compound 322] | < 0.1
32 | C=CC(=O)N1CCC(N(C)c2nc(OC[C@@H]3CC4(CC4)CN3C)nc3c(F)c(-c4ccc(F)c5sc(N)c(C#N)c45)c(C(F)(F)F)cc23)[C@H]1COC (stereo partly drawn) [Compound 456] | < 0.1
33 | C=CC(=O)N1CCC(N(C)c2nc(OC[C@@]34CCCN3C[C@H](F)C4)nc3cc(-c4ccc(F)c5sc(N)c(C#N)c45)c(C#N)cc23)[C@H]1C (stereo partly drawn) [Compound 387, 4-((1-acryloyl-2-methylpyrrolidin-3-yl)(methyl)amino)-7-(2-amino-3-cyano-7-fluorobenzo[b]thiophen-4-yl)-2-(((2R,7aS)-2-fluorotetrahydro-1H-pyrrolizin-7a(5H)-yl)methoxy)quinazoline-6-carbonitrile] | < 0.1
34 | C=CC(=O)N1CC(Nc2nc(OCC34CCCN3CCC4)nc3c(F)c(-c4ccc(F)c5sc(N)nc45)c(CC#N)cc23)C1 [Compound 91, 2-(4-((1-acryloylazetidin-3-yl)amino)-7-(2-amino-7-fluorobenzo[d]thiazol-4-yl)-8-fluoro-2-((tetrahydro-1H-pyrrolizin-7a(5H)-yl)methoxy)quinazolin-6-yl)acetonitrile] | > 1
35 | C=CC(=O)N1C[C@H](C)N(c2nc(OC)nc3c(F)c(-c4ccc(F)c5sc(N)c(C#N)c45)c(C(F)(F)F)cc23)C[C@H]1C [Compound 385] | < 0.1

same assay, conditions: Homo sapiens, NCI-H358, 0.5 h, read-out: PERK in H358 cell

Row | Compound | IC50 [µM]
36 | CN1CCC[C@H]1COc1nc(NC2CN(C#N)C2)c2cc(Cl)c(-c3ccc(F)c4sc(N)nc34)c(F)c2n1 [Compound 40, 3-((7-(2-amino-7-fluorobenzo[d]thiazol-4-yl)-6-chloro-8-fluoro-2-(((S)-1-methylpyrrolidin-2-yl)methoxy)quinazolin-4-yl)amino)azetidine-1-carbonitrile] | 0.1 to 1

same assay, conditions: pERK inhibition IC50, NCI-H358 cells, 30 min incubation; read-out: PERK in H358 cell

Row | Compound | IC50 [µM]
37 | C=CC(=O)N1CC[C@@H](Nc2nc(OC[C@@]34CCCN3C[C@H](F)C4)nc3c(F)c(-c4ccc(F)c5sc(N)nc45)c(C(F)(F)F)cc23)C1 (single isomer, unassigned) [Compound 271] | < 0.1
38 | C=CC(=O)N1CC[C@@H](N(C)c2nc(OC[C@@]34CCCN3C[C@H](F)C4)nc3c(F)c(-c4ccc(F)c5sc(N)c(C#N)c45)c(C(F)(F)F)cc23)[C@H]1C (single isomer, unassigned) [Compound 435] | > 1
39 | C=CC(=O)N1CC[C@@H](N(C)c2nc(OC[C@@]34CCCN3C[C@H](F)C4)nc3c(Cl)c(-c4ccc(F)c5sc(N)nc45)c(C(F)(F)F)cc23)C1 (single isomer, unassigned) [Compound 303] | 0.1 to 1
40 | C=CC(=O)N1C[C@H](N(C)c2ncnc3c(F)c(-c4ccc(F)c5sc(N)nc45)c(C(F)(F)F)cc23)C[C@H]1C (atropisomer, axis not shown) [Compound 250] | 0.1 to 1
41 | C=CC(=O)N1C[C@H](N(C)c2ncnc3c(F)c(-c4ccc(F)c5sc(N)nc45)c(C(F)(F)F)cc23)C2(CC2)C1 (atropisomer, axis not shown) [Compound 264] | > 1
42 | C=CC(=O)N1CC[C@@H](N(C)c2nc(OC[C@@H]3C[C@@H](F)CN3C)nc3c(F)c(-c4ccc(F)c5sc(N)nc45)c(C(F)(F)F)cc23)C1 (atropisomer, axis not shown) [Compound 232] | 0.1 to 1
